Reference: US20160168140A1, “HETEROCYCLIC COMPOUNDS AS ANTIBIOTIC POTENTIATORS” (priority 2014, published 2016)

Columns and labels:
E. coli = experiment: MIC shift assay of antibiotics (broth microdilution); format: cell-based; conditions: E. coli (SCR1); compd. concentration 4.0 μM; colistin MIC 0.5-1.0 μg/mL
Procedure: Minimum inhibitory concentration (MIC) shift assays were performed to determine if the test compounds could alter the MIC of existing antibacterial drugs (e.g., ciprofloxacin and colistin) for E. coli, Acinetobacter baumannii, Klebsiella pneumoniae, Pseudomonas aeruginosa, and Enterobacter cloacae. The MIC shift assay is based on the standard broth microdilution MIC determination protocol of Wiegand et al, Nat Protoc. 3(2):163-75 (2008), with slight modifications that allow for the screening of up to seven test compounds in a single plate.
On the day before an assay, bacteria were grown overnight in cation-adjusted Mueller Hinton broth (CAMHB; Teknova, Hollister, Calif.) at 37° C. in an orbital shaker and sub-cultured at a 1:200 dilution the following morning. The cells were grown to OD600=0.5 to 0.8 and then diluted to OD600=0.01. From a serial dilution of each antibiotic at (50 μL of 2× concentrated stock solutions) several concentrations were added to the wells of a sterile, transparent round-bottom 96-well plate (Phenix Research Products, Candler, N.C.), and diluted cells (50 μL) were added to the plates for a starting OD600 of 0.005. Then, a test compound (2.5 μL) was added to each well to give a final concentration of 4 or 10 μM. A row of wells lacking test compound but containing the antibiotic was used to determine the MIC of that antibiotic alone. A column of wells lacking both antibiotic and test compound served as a growth control, and an additional column containing only CAMHB was included as a sterile blank control.
The plates were incubated for 18 to 20 h at 37° C. in an orbital shaker, and the cell density (OD600) was determined the following day in a microplate reader (PolarStar Optima, BMG Labtech). The MIC shift was determined by comparing the MIC of the antibiotic alone to the MIC of the antibiotic plus test compound.

[1] = system: Acinetobacter baumannii (Ab23); experiment: as above; format: cell-based; conditions: for Colistin MIC Shift: A. baumannii (MDR Ab), compd. concentration 4.0 μM, colistin MIC 0.5-1.0 μg/mL; for colistin MIC shift, Ab23 at (compd concentration): fold shift of colistin MIC, nc = no changeover or no shift
Outline: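 Following a modified Wiegand broth microdilution protocol, colistin serial dilutions with or without test compound were set up in round-bottom 96-well plates and inoculated with A. baumannii cells to a starting OD600 of 0.005. Plates were shaken at 37° C. for 18 to 20 h and read at OD600. The fold shift was calculated from colistin MIC alone versus colistin MIC with test compound, with growth and medium-only blank controls.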

Ab23 = experiment: Time-kill assay with colistin and potentiator; format: cell-based, Acinetobacter baumannii; set-up: time-kill: concentration of potentiator required for effect: unit not given here; conditions: for time-kill: effect on Ab23 cells in the absence of colistin: compound alone (compound III at 10 μM), FIGS. 2-4; for time-kill: effect in the presence of colistin: compound plus colistin, Ab23, FIGS. 2-4
Procedure: Colistin and potentiator were diluted to 1000× final concentrations in water and DMSO, respectively. Then, 3 μl of the appropriate dilutions were added to culture tubes. An overnight culture of Ab23 was diluted to 10^6 CFU/ml, and 3 mL of cells were added to the tubes. The cultures were incubated at 37° C. in an orbital shaker. An aliquot of the starting inoculum was serially diluted in CAMHB and spread on LB agar plates for CFU determination. At 2, 4, 8, and 24 hours, aliquots were removed from each of the culture tubes, diluted, and spread LB agar plates. The plates were incubated overnight at 37° C. The following day, the number of CFUs on each plate was counted, and the number of bacterial in each culture condition was calculated. Colistin (“C”) was tested at 2 and 8 µg/mL. The select compounds (“P”) were tested at 2 and 10 µg/mL. The dotted line indicates the limit of detection.

[2] = system: panel of Gram-negative bacteria with different colistin susceptibilities; experiment: Fractional inhibitory concentration index (FICI) checkerboard assay with colistin; format: cell-based; conditions: for FICI Values of Colistin and Potentiator in Resistant Bacteria: FICI values of ≦0.5 indicate synergy
Procedure: The fractional inhibitory concentration index (FICI) was determined in combination with colistin using the broth microdilution susceptibility test method as described by the CLSI (Methods for Dilution Antimicrobial Susceptibility Tests for Bacteria That Grow Aerobically; Approved Standard-Ninth Edition. 2012. CLSI document M07-A9. CLIS, 940 West Valley Road, Suite 1400, Wayne, Pa. 19087-1898 USA). This checkerboard assay was set up with decreasing concentrations of colistin across the plate from left to right and decreasing concentrations of potentiator from top to bottom. The FICI values were then calculated using the methods of Lorian et al. (Antibiotics in Laboratory Medicine—Fifth Edition. 2005. Lippincott, Williams, & Wilkins, Philadelphia, Pa.). A panel of Gram-negative bacteria with different colistin susceptibilities were tested.
Each of the tested compounds synergized with colistin in the three species of colistin-resistant bacteria tested.

[3] = colistin-resistant A. baumannii
[4] = colistin-resistant K. pneumoniae
[5] = colistin-resistant P. aeruginosa

Row | Structure (SMILES) | Colistin MIC Shift (E. coli) | Colistin MIC Shift [1] | colistin MIC shift, Ab23 at (compd concentration) ([1]; compound concentration 2 μM) | other results
1 | Cc1cccc2c(NCCCN(C)C)nc(-c3cc(C(F)(F)F)cc(C(F)(F)F)c3)nc12 [compound 339] | 8x | 8x | 8-16x | 
2 | CNCCCN(C)c1nc(-c2cc(Br)cc(C(F)(F)F)c2)nc2c(C)cccc12 [compound 342] | 8x | 8x | 8-16x | 
3 | NCC(=O)n1cc(-c2ccc(Cl)c(Cl)c2)c2cc(Cl)ccc21 [compound 360] | 4x | 4x | 16x | 
4 | CC(N)C(=O)n1cc(-c2ccc(Cl)c(Cl)c2)c2cc(Cl)ccc21 (stereo not shown) [compound 361] | 4x | 4x | 16x | 
5 | CNCCCN(C)c1nc(-c2cccc(-c3cc(C(F)(F)F)ccc3F)c2)nc2c(C)cccc12 [compound 487] | 16x | 8x |  | colistin MIC shift, Ab23 at (compd concentration) ([1]; compound concentration 4 μM): 32x
6 | CCN(CC)CCCC(C)Nc1nc(-c2cc(-c3ccccc3)cc(C(F)(F)F)c2)nc2c(C)cccc12 (stereo not shown) [compound 492] | 8x | 8x |  | colistin MIC shift, Ab23 at (compd concentration) ([1]; compound concentration 4 μM): 32x
7 | CN(C)CCCNc1nc(-c2cc(Br)cc(C(F)(F)F)c2)nc2c(C(F)(F)F)cccc12 [compound 505] | 8x | 4x |  | colistin MIC shift, Ab23 at (compd concentration) ([1]; compound concentration 4 μM): 32x
8 | Cc1cccc2c(NCCCN(C)C)nc(-c3cc(Cl)cc(C(F)(F)F)c3)nc12 [compound 506] | 8x | 4x |  | colistin MIC shift, Ab23 at (compd concentration) ([1]; compound concentration 4 μM): 16x
9 | CN(C)CCCNc1nc(/C=C/c2ccc(Cl)c(Cl)c2)nc2c(C(F)(F)F)cccc12 [compound III] |  |  |  | time-kill: effect on Ab23 cells in the absence of colistin (Ab23): reduced Ab23 in two hours, although the effect was not sustained; time-kill: effect in the presence of colistin (Ab23): potent synergists of colistin; MIC Shift of Colistin and Potentiator in Resistant Bacteria [2, 3]: 133 x; FICI Values of Colistin and Potentiator in Resistant Bacteria [2, 3]: 0.21; MIC Shift of Colistin and Potentiator in Resistant Bacteria [2, 4]: 533 x; FICI Values of Colistin and Potentiator in Resistant Bacteria [2, 4]: 0.17; MIC Shift of Colistin and Potentiator in Resistant Bacteria [2, 5]: 33 x; FICI Values of Colistin and Potentiator in Resistant Bacteria [2, 5]: 0.19
10 | FC(F)(F)c1ccc2c(-c3ccc(Cl)c(Cl)c3)n[nH]c2c1 [compound II] |  |  |  | time-kill: effect on Ab23 cells in the absence of colistin (Ab23): had no effect on the cells; time-kill: effect in the presence of colistin (Ab23): potent synergists of colistin; MIC Shift of Colistin and Potentiator in Resistant Bacteria [2, 3]: 267 x; FICI Values of Colistin and Potentiator in Resistant Bacteria [2, 3]: 0.15; MIC Shift of Colistin and Potentiator in Resistant Bacteria [2, 4]: 32 x; FICI Values of Colistin and Potentiator in Resistant Bacteria [2, 4]: 0.39; MIC Shift of Colistin and Potentiator in Resistant Bacteria [2, 5]: 16 x; FICI Values of Colistin and Potentiator in Resistant Bacteria [2, 5]: 0.26
11 | Clc1ccc(/C=C/c2c[nH]c3ccc(Br)cc23)cc1Cl [compound I] |  |  |  | time-kill: effect on Ab23 cells in the absence of colistin (Ab23): had no effect on the cells; time-kill: effect in the presence of colistin (Ab23): potent synergists of colistin; time-kill: concentration of potentiator required for effect (Ab23; in combination with colistin, Ab23, FIG. 2): 2; MIC Shift of Colistin and Potentiator in Resistant Bacteria [2, 3]: 133 x; FICI Values of Colistin and Potentiator in Resistant Bacteria [2, 3]: 0.25; MIC Shift of Colistin and Potentiator in Resistant Bacteria [2, 4]: 64 x; FICI Values of Colistin and Potentiator in Resistant Bacteria [2, 4]: 0.30; MIC Shift of Colistin and Potentiator in Resistant Bacteria [2, 5]: 16 x; FICI Values of Colistin and Potentiator in Resistant Bacteria [2, 5]: 0.26

Second part, led by results:

Row | Colistin MIC Shift (E. coli) | Colistin MIC Shift [1] | colistin MIC shift, Ab23 at (compd concentration) ([1]; compound concentration 2 μM) | Structure (SMILES) | other results
12 | 4x | 4x | 8-16x | CN(C)CCCNc1nc(-c2cc(Br)cc(C(F)(F)F)c2)nc2c(Cl)cccc12 [compound 337] | 
13 | 4x | 4x | 8-16x | CN(C)CCCNc1nc(-c2cc(Br)cc(C(F)(F)F)c2)nc2c(Br)cccc12 [compound 338] | 
14 | 16x | 4x | 8-16x | Cc1cccc2c(NCCN(C)C)nc(-c3cc(Br)cc(C(F)(F)F)c3)nc12 [compound 345] | 
15 | 16x | 8x | 8-16x | Cc1cccc2c(NCCCN3CCNCC3)nc(-c3cc(Br)cc(C(F)(F)F)c3)nc12 [compound 348] | 
16 | 8x | 8x | 8-16x | Cc1cccc2c(NCCCN(C)C)nc(-c3cc(Br)cc(C(F)(F)F)c3)nc12 [compound 353] | 
